Source: patent US20190387739A1, “HERBICIDAL COMBINATION CONTAINING TRIAFAMONE AND INDAZIFLAM” (Bayer CropScience Aktiengesellschaft, priority 2016, published 2019)

Key:
Assay type in all cases: in vivo
Triticum aestivum = experiment: Greenhouse post-emergence herbicidal effect against Triticum aestivum; settings: 216 h, 9 DAA, read-out: % Efficacy; for Emax at 5 g/ha: individual application 5 g of AS/ha; for Emax at 10 g/ha: individual application 10 g of AS/ha; for Emax at 20 g/ha: individual application 20 g of AS/ha
Protocol: (§1) Post-emergence action against weeds
(§2) Seeds or rhizome pieces of mono- and dicotyledonous harmful plants and of crop plants were placed in sandy loam in plastic pots having a diameter of 4 cm, covered with soil and cultivated in a greenhouse under good growth conditions.
(§3) Ten to twenty days after sowing, the test plants were treated at the one- to three-leaf stage. The herbicide/active compound combinations according to the invention (mixture applications) formulated as suspensions and, in parallel tests, the correspondingly formulated individual active compounds (individual applications) were then sprayed onto the green parts of the plants in various dosages at a water application rate of 300 I/ha (converted).
(§4) After the test plants had been kept in the greenhouse under optimum growth conditions for a certain period of time (DAA, days after application), the herbicidal activity was assessed visually by comparison of treated and untreated plants. The percentages mean: 0%=no herbicidal activity, 100%=the plants die off completely.
(§5) The percentages from the treatments with the herbicides alone (individual applications) and with the combinations according to the invention (mixture applications) were employed to calculate interactions using the method of Colby. When the observed efficacies of the mixture applications exceed the formal sum of the values of the tests with individual applications, they also exceed the expected value according to Colby, which is calculated using the formula below (cf. S. R. Colby; in Weeds 15 (1967) pp. 20 to 22):
(§6) Here: • A, B=activity of component A (triafamone) or B (indaziflam) in percent at a dosage of a and b, respectively, in g of AS/ha (gram of active substance per hectare). • exp. expected value in % at a dosage of a+b g of ai/ha. • b) Results
(§7) The abbreviations in the tables below have the following meanings: • DAA=days after application • g of AS/ha=grams of active substance per hectare • % efficacy=herbicidal effect in percent • meas.=measured values • exp.=expected values according to Colby (calculation: see above) • syn.%=difference (%) of measured value from expected value (%) (measured value minus expected value)/

Lolium rigidum = experiment: Greenhouse post-emergence herbicidal effect against Lolium rigidum; settings: 216 h, 9 DAA, read-out: % Efficacy; for Emax at 10 g/ha: individual application 10 g of AS/ha; for Emax at 20 g/ha: individual application 20 g of AS/ha
Protocol: as §1, §2, §3, §4, §5, §6, §7

Alopecurus myosuroides = experiment: Greenhouse post-emergence herbicidal effect against Alopecurus myosuroides; settings: 408 h, 17 DAA, read-out: % Efficacy; for Emax at 5 g/ha: individual application 5 g of AS/ha
Protocol: as §1, §2, §3, §4, §5, §6, §7

Viola tricolor = experiment: Greenhouse post-emergence herbicidal effect against Viola tricolor; settings: 408 h, 17 DAA, read-out: % Efficacy; for Emax at 5 g/ha: individual application 5 g of AS/ha
Protocol: as §1, §2, §3, §4, §5, §6, §7

Zea mays = experiment: Greenhouse post-emergence herbicidal effect against Zea mays; settings: 408 h, 17 DAA, read-out: % Efficacy; for Emax at 10 g/ha: individual application 10 g of AS/ha
Protocol: as §1, §2, §3, §4, §5, §6, §7

Avena fatua = experiment: Greenhouse post-emergence herbicidal effect against Avena fatua; settings: 408 h, 17 DAA, read-out: % Efficacy
Protocol: as §1, §2
(§8) Ten to twenty days after sowing, the test plants were treated at the one- to three-leaf stage. […]
(§9) After the test plants had been kept in the greenhouse under optimum growth conditions for a certain period of time (DAA, days after application), the herbicidal activity was assessed visually by comparison of treated and untreated plants. […]
as §5, with “22): […]” for “22):”

Hordeum murinum = experiment: Greenhouse post-emergence herbicidal effect against Hordeum murinum; settings: 408 h, 17 DAA, read-out: % Efficacy; for Emax at 20 g/ha: individual application 20 g of AS/ha
Protocol: as §1, §2, §3, §4, §5, §6, §7

Glycine max = experiment: Greenhouse post-emergence herbicidal effect against Glycine max; settings: 408 h, 17 DAA, read-out: % Efficacy; for Emax at 10 g/ha: individual application 10 g of AS/ha
Protocol: as §1, §2, §3, §4, §5, §6, §7

[1] = test system: mono- and dicotyledonous harmful plants and crop plants; experiment: Greenhouse trials, discussion of the results over all test plants; settings: at the dosages tested, post-emergence
Protocol: as §1, §2, §8, §9
as §5, with “22): […]” for “22):”

[2] = individual application 2.5 g of AS/ha
[3] = individual application 5 g of AS/ha
[4] = individual application 10 g of AS/ha
[5] = individual application 20 g of AS/ha

SMILES: COc1nc(OC)nc(C(=O)c2cccc(F)c2N(C)S(=O)(=O)C(F)F)n1 [triafamone]
- Emax at 2.5 g/ha (Triticum aestivum; [2]): 0%
- Emax at 5 g/ha (Triticum aestivum): 0%
- Emax at 10 g/ha (Triticum aestivum): 0%
- Emax at 20 g/ha (Triticum aestivum): 13%
- Emax at 2.5 g/ha (Lolium rigidum; [2]): 0%
- Emax at 5 g/ha (Lolium rigidum; [3]): 0%
- Emax at 10 g/ha (Lolium rigidum): 0%
- Emax at 20 g/ha (Lolium rigidum): 18%
- Emax at 2.5 g/ha (Alopecurus myosuroides; [2]): 25%
- Emax at 5 g/ha (Alopecurus myosuroides): 50%
- Emax at 2.5 g/ha (Viola tricolor; [2]): 0%
- Emax at 5 g/ha (Viola tricolor): 0%
- Emax at 10 g/ha (Viola tricolor; [4]): 0%
- Emax at 2.5 g/ha (Zea mays; [2]): 0%
- Emax at 5 g/ha (Zea mays; [3]): 0%
- Emax at 10 g/ha (Zea mays): 0%
- Emax at 10 g/ha (Avena fatua; [4]): 0%
- Emax at 2.5 g/ha (Hordeum murinum; [2]): 0%
- Emax at 5 g/ha (Hordeum murinum; [3]): 0%
- Emax at 20 g/ha (Hordeum murinum): 0%
- Emax at 2.5 g/ha (Glycine max; [2]): 0%
- Emax at 10 g/ha (Glycine max): 0%
- herbicidal efficacy as individual herbicide [1]: frequently ineffective

SMILES: Cc1ccc2c(c1)[C@H](Nc1nc(N)nc(C(C)F)n1)[C@@H](C)C2 (stereo partly drawn) [indaziflam]
- Emax at 5 g/ha (Triticum aestivum): 23%
- Emax at 10 g/ha (Triticum aestivum): 23%
- Emax at 20 g/ha (Triticum aestivum): 48%
- Emax at 40 g/ha (Triticum aestivum; individual application 40 g of AS/ha): 63%
- Emax at 10 g/ha (Lolium rigidum): 63%
- Emax at 20 g/ha (Lolium rigidum): 70%
- Emax at 5 g/ha (Alopecurus myosuroides): 15%
- Emax at 10 g/ha (Alopecurus myosuroides; [4]): 60%
- Emax at 20 g/ha (Alopecurus myosuroides; [5]): 75%
- Emax at 5 g/ha (Viola tricolor): 80%
- Emax at 10 g/ha (Zea mays): 0%
- Emax at 20 g/ha (Zea mays; [5]): 25%
- Emax at 5 g/ha (Avena fatua; [3]): 10%
- Emax at 20 g/ha (Hordeum murinum): 40%
- Emax at 5 g/ha (Glycine max; [3]): 50%
- Emax at 10 g/ha (Glycine max): 73%
